From patent US20230065562A1, “DUAL CONTROLS FOR THERAPEUTIC CELL ACTIVATION OR ELIMINATION” (Bellicum Pharmaceuticals, Inc., priority 2015, published 2023)

Columns and labels:
[1] = biological target: iRmC9 (pBP1327 & pBP1328) (Homo sapiens, UniProt P42345+P62942, F37V); assay: SRα-SEAP assay of drug specificity, iRmC9 switch, 293 cells; conditions: SRα-SEAP reporter
[2] = tested on: iCasp9M.IRES.IL-12-transduced EBV-CTLs; assay: IL-12 ELISA of iCasp9M.I.IL-12-transduced EBV-CTL supernatant; type: cell-based, human; conditions: 10 nM CID; detection limit 7.8 pg/mL
Protocol: The concentration of interferon-[…] (IFN-[…]), IL-2, IL-4, IL-5, IL-10, and tumor necrosis factor-[…] (TNF[…]) in CTL culture supernatants was measured using the Human Th1/Th2 cytokine cytometric Bead Array (BD Pharmingen) and the concentration of IL-12 in the culture supernatants was measured by enzyme-linked immunosorbent assay (ELISA; R&D Systems, Minneapolis, Minn.) according to the instructions of the manufacturer.
To determine whether iCasp9M could effectively destroy cells genetically modified to express an active transgene product, the ability of iCasp9M to eliminate EBV-CTLs stably expressing IL-12 was measured. While IL-12 was undetectable in the supernatant of nontransduced and iCasp9M.IRES.GFP-transduced CTLs, the supernatant of iCasp9M.IRES.IL-12-transduced cells contained 324 pg/mL to 762 pg/mL IL-12. After administration of 10 nM CID, however, the IL-12 in the supernatant fell to undetectable levels (<7.8 pg/mL). Thus, even without prior sorting for high transgene expressing cells, activation of iCasp9M is sufficient to completely eliminate all T cells producing biologically relevant levels of IL-12. […] Three days after a second antigenic stimulation, the levels of IL-12 in the culture supernatant were measured by IL-12 ELISA (detection limit of this assay is 7.8 pg/mL). […]

Sequence of iRmC9 (pBP1327 & pBP1328) (P42345 2025-2113): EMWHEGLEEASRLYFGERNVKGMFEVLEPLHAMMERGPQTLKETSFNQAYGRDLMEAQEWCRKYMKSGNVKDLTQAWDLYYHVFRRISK
Sequence of iRmC9 (pBP1327 & pBP1328) (P62942 2-107 F37V): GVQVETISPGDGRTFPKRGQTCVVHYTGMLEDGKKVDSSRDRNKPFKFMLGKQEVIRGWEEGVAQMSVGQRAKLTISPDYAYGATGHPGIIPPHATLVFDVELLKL
Sequence of iRmC9 (pBP1327 & pBP1328) (P55211 135-416 partner limits assumed): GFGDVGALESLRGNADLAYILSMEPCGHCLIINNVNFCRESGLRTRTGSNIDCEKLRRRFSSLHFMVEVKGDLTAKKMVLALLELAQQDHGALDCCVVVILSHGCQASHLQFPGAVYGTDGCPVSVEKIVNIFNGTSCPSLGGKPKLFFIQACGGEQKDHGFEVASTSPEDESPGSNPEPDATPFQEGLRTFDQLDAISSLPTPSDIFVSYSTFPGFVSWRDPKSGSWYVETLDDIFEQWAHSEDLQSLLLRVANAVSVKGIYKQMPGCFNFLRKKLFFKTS

Compound | activation of the iRmC9 switch [1] | IL-12 in the supernatant after CID [2] [pg/mL]
CC[C@H](C(=O)N1CCCC[C@H]1C(=O)O[C@H](CCc1ccc(OC)c(OC)c1)c1cccc(OCC(=O)NCCNC(=O)COc2cccc([C@@H](CCc3ccc(OC)c(OC)c3)OC(=O)[C@@H]3CCCCN3C(=O)[C@@H](CC)c3cc(OC)c(OC)c(OC)c3)c2)c1)c1cc(OC)c(OC)c(OC)c1 [rimiducid] | can activate | 
CC[C@H](C(=O)N1CCCC[C@H]1C(=O)O[C@H](CCc1ccc(OC)c(OC)c1)c1cccc(OCC(=O)NCC(CNC(=O)COc2cccc([C@@H](CCc3ccc(OC)c(OC)c3)OC(=O)[C@@H]3CCCCN3C(=O)[C@@H](CC)c3cc(OC)c(OC)c(OC)c3)c2)CN(C)C)c1)c1cc(OC)c(OC)c(OC)c1 [AP20187] |  | < 7.8
